Experimental data published in US5348941A, “Stabilizers for fibroblast growth factors” (Merck & Co., Inc., priority 1992, dated 1994).

Experiments:
[1] = target: T1, aFGF (Homo sapiens, UniProt P05230); experiment: Thermal denaturation (Tm) of aFGF by fluorescence spectroscopy; format: biochemical; settings: for molar excess of ligand to aFGF required for 50% stabilization: FIG. 9; for Tm maximum of aFGF, fluorescence: saturating ligand, 100 μg/ml aFGF
T1 construct: The recombinant derived, 140 amino add form is the preferred form of aFGF; N-terminal methionine (MetHaFGF); made in house; host or cells: microbial cells (preferred embodiment)
Method: Fluorescence spectra are obtained with a Spex Fluorolog-2 spectrofiuorometer using a 1 mm pathlength cuvette. Band passes from 1-2 nm are employed with sample absorptivities maintained below 0.1 at 280 nm. The temperature is controlled either manually or automatically as described above. Reproducibility of thermal denaturation temperatures (Tm) is ± 2° C.
To more directly ascertain the effect of heparin on aFGF stability, the temperature-induced denaturation of aFGF as a function of heparin concentration was monitored by fluorescence spectroscopy. Fluorescence spectra were obtained with a Spex Fluorolog-2 spectrofiuorometer using a 1 mm pathlength cuvette. Band passes from 1-2 nm were employed with sample absorptivities maintained below 0.1 at 280 nm. The temperature was controlled either manually or automatically as described above. Reproducibility of thermal denaturation temperatures (Tm) was ±2° C. […] Experiments were carried out at 100 μg/ml protein (6.3 μM) in a PBS buffer at pH 7.2. Curve drawn through data points for clarity only.
Studies of the stabilization of aFGF by heparin are difficult to interpret because of the inherent heterogeneity of heparin preparations, Lane and Lindahl, Eds. Heparin, Chemical and Biological Properties, Clinical Applications, Edward Arnold, London (1989); Jackson, et al., Physiol. Rev. 71: 481-539 (1991). In order to better understand the polyanionic stabilization of aFGF, a series of well-defined fragments of heparin were examined for their ability to stabilize aFGF against thermal denaturation. These enzymatically prepared and purified fragments varied in size from a disaccharide to a decasaccharide. Each fragment was incubated with aFGF at a 1:1 weight ratio in a PBS buffer. The sample was then stressed by temperature and structural changes in aFGF were monitored by both circular dichroism and fluorescence spectroscopy. […] All samples contained 100 μg/ml aFGF (6.3 μM)in a PBS buffer (pH 7.2) with 100 μg/ml of each heparin fragment.
Since these fragments of heparin have a well-defined molecular weight, the molar ratio of aFGF to ligand during these thermal denaturation experiments can be calculated. The Tm of aFGF as a function of the molar concentration of the hexasaccharide was measured by fluorescence spectroscopy. Fluorescence spectra were obtained with a Spex Fluorolog-2 spectrofiuorometer using a 1mm pathlength cuvette. Band passes from 1-2 nm were employed with sample absorptivities maintained below 0.1 at 280 nm. The temperature was controlled either manually or automatically as described above. Reproducibility of thermal denaturation temperatures (Tm) was ±2° C.
Analogous to the heparin experiments illustrated in Example 1 (FIG. 3), aFGF thermal stability was monitored by fluorescence spectroscopy as a function of concentration for several other of the polyanions. […] All samples contained 100 μg/ml of aFGF (6.3 μM) in a PBS buffer at pH 7.2.

[2] = tested on: BALB/c 3T3 A31 fibroblasts; experiment: Fibroblast mitogenic assay ([3H]-thymidine incorporation into DNA); format: cell-based; parameters: Bioactivity (mitogenic activity of aFGF in the presence of ligand): unit not given here; settings: for mitogenic activity of aFGF: absence of heparin; for Bioactivity (mitogenic activity of aFGF in the presence of ligand): complete absence of heparin, < = response did not plateau, * = cell death observed
Method: Biological activity of the formulation of the instant invention is determined by a modification of the fibroblast mitogenic assay as described by Linemeyer et al. in European Patent Application, Publication No. 259,953. BALB/c 3T3 A31 fibroblasts (American Type Culture Collection) are plated at about 3×10^5 cells per 32 cm^2 wells in culture media containing about 10% heat-inactivated calf serum and incubated in about 7% CO2 (pH 7.35±0.05). The cells become fully quiescent by replacing the media with serum free media at about 6, about 24 hours and about 48 hours later. At about 53 hours after plating samples of the various formulations are added and about 0.12 μg of dexamethasone are added. At about 65 hours each well is supplemented with about 0.4 μCi of [methyl-^3 H]-thymidine (20 Ci/mmole, Dupont) and 0.6 μg of unlabeled thymidine (Sigma), and at 80 hours the cells are processed for determination of radiolabel incorporation into DNA. Each dose-response point is the average of at least quadruplicate determinations. Other cell types such vascular endothelial cells and corneal endothelial cells can be employed to determine in vitro mitogenicity. The procedures are described in detail by Thomas et al., Proc. Natl. Acad. Sci. USA 82:6409-6431 (1985).
^(d) Mitogenic activity of aFGF was measured in the presence of ligan
indicated in the complete absence of heparin.
*indicates cell death observed during assay.
Biological activity of the formulation of the instant invention was determined by a modification of the fibroblast mitogenic assay as described by Linemeyer et al. in European Patent Application, Publication No. 259,953. BALB/c 3T3 A31 fibroblasts (American Type Culture Collection) were plated at 3×10^5 cells per 32 cm^2 well in culture media containing about 10% heat-inactivated calf serum and incubated in 7% CO2 (pH 7.35±0.05). The cells become fully quiescent by replacing the media with serum free media at 6, 24 hours and 48 hours later. At 53 hours after plating samples of the various formulations were added and 0.12 μg of dexamethasone was added, at 65 hours each well was supplemented with 0.4 μCi of [methyl-^3 H]-thymidine (20 Ci/mmole, Dupont) and 0.6 μg of unlabeled thymidine (Sigma), and at 80 hours the cells were processed for determination of radiolabel incorporation into DNA. Each dose-response point is the average of at least quadruplicate determinations. Other cell types such vascular endothelial cells and corneal endothelial cells can be employed to determine in vitro mitogenidty. The procedures are described in detail by Thomas et al., Proc. Natl. Acad. Sci. USA 82:6409-6431 (1985).

T1 sequence (P05230 16-155 limits assumed): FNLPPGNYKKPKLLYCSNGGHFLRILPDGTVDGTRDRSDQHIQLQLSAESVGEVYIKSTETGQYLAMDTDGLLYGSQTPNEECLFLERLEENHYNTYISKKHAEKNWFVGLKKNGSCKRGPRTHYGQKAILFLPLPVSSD

Compound	molar excess of ligand to aFGF required for 50% stabilization ([1]; fluorescence)	Tm maximum of aFGF, fluorescence ([1]; PBS pH 7.2)	mitogenic activity of aFGF [2]	Bioactivity (mitogenic activity of aFGF in the presence of ligand) [2]	thermal melting temperature (Tm) of aFGF, fluorescence ([1]; 1/3X ligand by weight, PBS pH 7.2)	thermal melting temperature (Tm) of aFGF, fluorescence ([1]; 3X ligand by weight, PBS pH 7.2)	concentration of heparin necessary to obtain one-half the Tm maximum ([1]; fluorescence, PBS pH 7.2)
O=P(O)(O)O[C@H]1[C@H](OP(=O)(O)O)[C@@H](OP(=O)(O)O)[C@H](OP(=O)(O)O)[C@@H](OP(=O)(O)O)[C@H]1OP(=O)(O)O [Inositol hexaphosphate, inositol hexaphosphate]	~2	60 °C	did not show any appreciable mitogenic activity	< 0.6	–	–	–
O=S(=O)(O)OC1C(OS(=O)(=O)O)C(OS(=O)(=O)O)C(OS(=O)(=O)O)C(OS(=O)(=O)O)C1OS(=O)(=O)O (stereo not drawn) [Inositol hexasulfate, inositol hexasulfate]	~3.5	53 °C	–	2.3	–	–	–
O=P(O)(O)OP(=O)(O)OP(=O)(O)OP(=O)(O)O [Tetrapolyphosphate]	approximately 6	50 °C	did not show any appreciable mitogenic activity	< 0.25	–	–	–
dextran sulfate	–	–	–	5.0	–	–	–
heparin [reference compound]	–	61 °C	–	4.2	59 °C	61 °C	0.1 X (by weight)
low molecular weight heparin [Low MW heparin, reference compound]	–	–	–	4.0	–	–	–
sulfated β-cyclodextrin	~1.5	56 °C	–	3.7	–	–	–
